Measured values published in patent US20100190795A1, “BETULIN DERIVED COMPOUNDS USEFUL AS ANTIPROTOZOAL AGENTS” (Valtion Teknillinen tutkimuskeskus, priority 2006, published 2010).

Test system: Leishmania
Assay: Alamar Blue determination of activity against Leishmania (single concentration and GI50)
Format: cell-based, Leishmania donovani, L. tropica
Settings: for activity against leishmaniasis: statement in words in the description; for inhibition at 50 µM: Leishmania, compound concentration 50 µM; for GI50: concentrations between 50 and 0.01 μM
Experimental: Leishmania donovani MHOM/SD/1962/1S-012D and L. tropica MHOM/IS/1990/LRC-L590 protozoa were used in the tests.
Promastigotes were grown in a broth containing Medium-199 (Sigma, St. Louis, Mo.) supplemented with 2 mM L-glutamine, 100 μM adenosine, 23 μM folio acid, antibiotics (100 IU penicillin G and 100 μg/ml streptomycin), 1×BME vitamin mixture, 25 mM 2-(N-morpholin)ethanesulfonic acid (MES), 4.2 mM NaHCO3 and heat treated fetal calf serum (FCS, 10% v/v), pH being adjusted to 6.8, Promastigotes were grown at 26° C.
Axenic amastigotes of L. donovani were grown according to the procedure presented by Debrabant et al., 2004, in the RPMI 1640 broth containing 20% v/v of fetal calf serum (FCS), at 37° C., pH 5.5, Axenic amastigotes of L. tropica were grown as described for L. donovani with the exception that only 10% v/v FCS was used, at 36° C. without CO2.
Each dilution with the desired concentration of the parasite was dispensed as three parallel samples (250 μl/well) to a 96 well microtiter plate having a flat bottom (NUNC, Denmark), followed by the addition of Alamar Blue reagent (25 μl/well, ENCO). The plates were read (λcm=544 nm; λex2=590 nm) after following incubation times (3, 9, 24, 48 and 72 h) using a fluorescence microtiter plate reader (Fluoroskan, Ascent Fla., Finland).
Activity of the compounds was tested both for L. donovani and L. tropica species. Promastigotes (2×10^6 cells/ml) or axenic amastigotes (5.0×10^5 cells/ml) were introduced as three parallel samples (125 μl/well) to 96 well microtiter plates having flat bottoms, the wells containing each compound diluted in the cultivation broth (125 with final concentration of DMSO of 1%), Initially, the concentration of the compounds was […]. Amphotericin B (1 μM) was included as positive control (Sigma, St. Louis, Mo.), Broth containing DMSO was used as negative control. The parasites were tested either with or without the compounds by incubating at 26° C. (promastigotes), at 36° C. (axenic amastogotes of L. tropica) or at 37° C. (axenic amastogotes of L. donovani). After 24 hours, the Alamar Blye reagent (25 μl/well) was added, the plates were still incubater for 24 hours, followed by fluorescence determination. GI50 assay was carried out using the same procedure, the concentrations of the compounds to be tested ranging, however, between 50 and 0.01 μM.
Testing of the compounds was carried out as described in example 32.

[1] = Table 4, 24 h, then Alamar Blue 24 h, fluorescence, species and stage not given
[2] = Table 5, tested as in example 32, species and stage not stated

28-carboxymethoxy mentholester of betulin [betulin 28-carboxymethoxy mentholester]
Inhibition of Leishmania (%) [1]: 16.6%

C=C(C)[C@@H]1CC[C@]2(CO)CC[C@]3(C)[C@H](CC[C@@H]4[C@@]5(C)CC=CC(C)(C)[C@@H]5CC[C@]43C)[C@@H]12 [2,3-didehydro-3-deoxybetulin, reference compound]
Inhibition of Leishmania (%) [1]: 13.2%

CC(C)[C@@H]1CC[C@]2(C(=O)O)CC[C@]3(C)[C@H](CC[C@@H]4[C@@]5(C)CCC(=O)C(C)(C)[C@@H]5CC[C@]43C)[C@@H]12 [20,29-hydrobetulonic acid, 20,29-dihydrobetulonic acid]
Inhibition of Leishmania (%) [1]: 73.4%

C=C(C)[C@@H]1CC[C@]2(COC(=O)c3ccccc3NC(C)=O)CC[C@]3(C)C(CCC4[C@@]5(C)CC[C@H](O)C(C)(C)C5CC[C@]43C)C12 (stereo partly shown) [28-N-acetylanthranilic acid ester of betulin]
Inhibition of Leishmania (%) [1]: 59.2%
activity against leishmaniasis: considerable activity

C=C(C)C1CCC2(COC(C)=O)CCC3(C)C(CCC4C5(C)CCC(=O)C(C)(C)C5CCC43C)C12 (stereo not shown) [28-acetate of betulonic alcohol]
Inhibition of Leishmania (%) [1]: 40.6%

C=C(C)C1CCC2(C(=O)NC(CC(=O)OC)C(=O)OC)CCC3(C)C(CCC4C5(C)CCC(=O)C(C)(C)C5CCC43C)C12 (stereo not shown) [28-aspartateamide dimethyl ester of betulonic acid]
Inhibition of Leishmania (%) [1]: 69.3%
activity against leishmaniasis: considerable activity

C=C(C)C1CCC2(C(=O)OC)CCC3(C)C(CCC4C5(C)CCC(=O)C(C)(C)C5CCC43C)C12 (stereo not shown) [28-methylester of betulonic acid]
Inhibition of Leishmania (%) [1]: 40.1%

C[C@@H]1[C@H](O)[C@@H](C)/C=C/C=C/C=C/C=C/C=C/C=C/C=C/[C@H](O[C@@H]2O[C@H](C)[C@@H](O)[C@H](N)[C@@H]2O)C[C@@H]2O[C@](O)(C[C@@H](O)C[C@@H](O)[C@H](O)CC[C@@H](O)C[C@@H](O)CC(=O)O[C@H]1C)C[C@H](O)[C@H]2C(=O)O [amphotericine B, Amphotericin B, reference compound]
Inhibition of Leishmania (%) (Table 4, positive control at 1 μM): 55.4%
Inhibition of Leishmania (%) (Table 5, positive control at 1 μM): 55.4%

C=C(C)[C@@H]1CC[C@]2(/C=N/O)CC[C@]3(C)[C@H](CC[C@@H]4[C@@]5(C)CC/C(=N\O)C(C)(C)[C@@H]5CC[C@]43C)[C@@H]12 [betulin 3,28-dioxime]
Inhibition of Leishmania (%) [1]: 72.4%

C=C(C)C1CCC2(C#N)CCC3(C)C(CCC4C5(C)CCC(=NOC(C)=O)C(C)(C)C5CCC43C)C12 (stereo not shown) [betulin 3-acetoxyoxime-28-nitrile]
Inhibition of Leishmania (%) [1]: 66.4%
activity against leishmaniasis: considerable activity

C=C(C)[C@@H]1CC[C@]2(COC(=O)C3C(C=C(C)C)C3(C)C)CC[C@]3(C)[C@H](CC[C@@H]4[C@@]5(C)CC[C@H](O)C(C)(C)[C@@H]5CC[C@]43C)[C@@H]12 (stereo partly shown) [betulin 28-chrysanthemate, 28-chrysanthemate of betulin]
Inhibition of Leishmania (%) [1]: 13.4%

C=C(C)[C@@H]1CC[C@]2(/C=N/O)CC[C@]3(C)[C@H](CC[C@@H]4[C@@]5(C)CC[C@H](O)C(C)(C)[C@@H]5CC[C@]43C)[C@@H]12 [betulin 28-oxime]
Inhibition of Leishmania (%) [1]: 66.8%

C=C(C)[C@@H]1CC[C@]2(CO)CC[C@]3(C)[C@H](CC[C@@H]4[C@@]5(C)CC[C@H](O)C(C)(C)[C@@H]5CC[C@]43C)[C@@H]12 [betulin, lup-20(29)-ene-3β,28-diol]
inhibition at 50 µM [1]: 35%

C=C(C)[C@@H]1CC[C@]2(C(=O)O)CC[C@]3(C)[C@H](CC[C@@H]4[C@@]5(C)CC[C@H](O)C(C)(C)[C@@H]5CC[C@]43C)[C@@H]12 [betulinic acid, reference compound]
inhibition at 50 µM [1]: 39.8%

C=C(C)[C@@H]1CC[C@]2(C=O)CC[C@]3(C)[C@H](CC[C@@H]4[C@@]5(C)CC[C@H](O)C(C)(C)[C@@H]5CC[C@]43C)[C@@H]12 [betulinic aldehyde, reference compound]
inhibition at 50 µM [1]: 65%

C=C(C)[C@@H]1CC[C@]2(C(=O)O)CC[C@]3(C)[C@H](CC[C@@H]4[C@@]5(C)CCC(=O)C(C)(C)[C@@H]5CC[C@]43C)[C@@H]12 [betulonic acid]
Inhibition of Leishmania (%) [1]: 97.6%
activity against leishmaniasis: considerable activity

C=C(C)[C@@H]1CC[C@]2(CO)CC[C@]3(C)[C@H](CC[C@@H]4[C@@]5(C)CCC(=O)C(C)(C)[C@@H]5CC[C@]43C)[C@@H]12 [betulonic alcohol]
Inhibition of Leishmania (%) [1]: 44.0%

C=C(C)[C@@H]1CC[C@]2(C=O)CC[C@]3(C)[C@H](CC[C@@H]4[C@@]5(C)CCC(=O)C(C)(C)[C@@H]5CC[C@]43C)[C@@H]12 [betulonic aldehyde, reference compound]
Inhibition of Leishmania (%) [1]: 46.2%

Dials-Alder adduct of 3β,28-diacetoxylupa-12,18-diene and p-chloro-4-phenylurazole
Inhibition of Leishmania (%) [2]: 27.3%

Diels-Alder adduct of 3β,28-diacetoxylupa-12,18-diene and 1,3-dioxol-5-ylurazole
Inhibition of Leishmania (%) [2]: 52.2%
activity against leishmaniasis: considerable activity

Diels-Alder adduct of 3β,28-diacetoxylupa-12,18-diene and 1-naphthylurazole
Inhibition of Leishmania (%) [2]: 57.7%
activity against leishmaniasis: considerable activity

Diels-Alder adduct of 3β,28-diacetoxylupa-12,18-diene and 4-benzoylurazole
Inhibition of Leishmania (%) [2]: 24.7%

Diels-Alder adduct of 3β,28-diacetoxylupa-12,18-diene and 4-methylurazole
GI50 (Table 5): 8.9 µM
Inhibition of Leishmania (%) [2]: 98.2%
activity against leishmaniasis: considerable activity

Diels-Alder adduct of 3β,28-diacetoxylupa-12,18-diene and 4-phenylurazole
Inhibition of Leishmania (%) [2]: 36.2%

Diels-Alder adduct of 3β,28-diacetoxylupa-12,18-diene and indan-5-yl urazole
Inhibition of Leishmania (%) [2]: 22.5%

Diels-Alder adduct of 3β,28-diacetoxylupa-12,18-diene and m-chloro-4-phenylurazole
Inhibition of Leishmania (%) [2]: 29.7%

Diels-Alder adduct of 3β,28-diacetoxylupa-12,18-diene and m-methoxy-4-phenylurazole
Inhibition of Leishmania (%) [2]: 43.5%

Diels-Alder adduct of 3β,28-diacetoxylupa-12,18-diene and m-nitroxy-4-phenylurazole
Inhibition of Leishmania (%) [2]: 29.5%

Diels-Alder adduct of 3β,28-diacetoxylupa-12,18-diene and p-acetoxy-4-phenylurazole
Inhibition of Leishmania (%) [2]: 44.7%

Diels-Alder adduct of 3β,28-diacetoxylupa-12,18-diene and p-fluoro-4-phenylurazole
Inhibition of Leishmania (%) [2]: 47.8%

Diels-Alder adduct of 3β,28-diacetoxylupa-12,18-diene and urazole
GI50 (Table 5): 25.5 µM
Inhibition of Leishmania (%) [2]: 87.6%
activity against leishmaniasis: considerable activity

Diels-Alder adduct of lupa-12,18-diene and 4-methylurazole
Inhibition of Leishmania (%) [2]: 50.0%

Diels-Alder adduct of lupa-12,18-diene and 4-phenylurazole
Inhibition of Leishmania (%) [2]: 47.5%

betulin 28-acetic acid methyl ester [betulin 28-acetic acid methylester]
Inhibition of Leishmania (%) (Table 4, compound concentration, 24 h, then Alamar Blue 24 h, fluorescence, species and stage not given): 95.3%
activity against leishmaniasis: considerable activity
